Counter-ions that a name gives are not always drawn.
Tested on: AMPA receptor
Experiment: Inhibitory action on AMPA-inducing inflow of calcium into nerve cells (Fura2-AM)
Format: cell-based
Details: rat cerebral cortex nerve cells on astrocytes, 1 μM MK-801, stimulated by 2 μM AMPA, fluorescence 340/380 nm
Description: The cerebral cortex was excised from the brain of a rat on day 18 after birth and treated with trypsin and DNase, whereby the cells were dispersed. The cells were allowed to float on DMEM containing 10% serum, inoculated into a culture bottle, and their astrocytes were grown. The astrocytes were re-dispersed with trypsin and inoculated onto each well on a 96-well plate. After it was confirmed that the bottom of each well was completely covered with the astrocytes after culture for 1 week, cerebral cortex nerve cells dispersed in the same manner as above were inoculated thereon. After 24 hours, the medium was exchanged with fresh one, and after culture for further 1 week, the medium was exchanged with a medium containing 1 μM MK-801.
The inflow of calcium into the cells was measured using Fura2-AM that is a calcium-sensitive fluorescent pigment. By treating the cells with a Fura2-AM-containing medium for 1 hour, Fura2-AM was incorporated into the cells, and the medium was exchanged with a Tyrode solution containing 1 μM MK-801. After a test compound was added, the cells were stimulated by 2 μM AMPA. The change in the amount of calcium flowing into the cells was measured as a change in the fluorescence intensity at wavelengths of 340/380 nm. The effect of a test compound was evaluated where the reaction caused by AMPA added to the Tyrode solution free of the test compound was used as the control.

| Compound | IC50 [µM] |
| --- | --- |
| O=C1CSC(c2ccccc2)=NN1c1ccccc1 [Example 4, 2,4-Diphenyl-4H-1,3,4-thiadiazine-5(6H)-one] | 12 |
| O=C1COC(/C=C/c2ccccc2)=NN1c1ccccc1 [Example 15, 2-Styryl-4-phenyl-4H-1,3,4-oxadiazine-5(6H)-one] | 27.5 |
| O=C1COC(/C=C/c2cccnc2)=NN1c1ccccc1 [Example 16, 2-[2-(3-Pyridyl)vinyl]-4-phenyl-4H-1,3,4-oxadiazine-5(6H)-one] | 24.9 |
| COc1ccccc1C1=NN(c2ccccc2Br)C(=O)CO1 [Example 17, 2-(2-Methoxyphenyl)-4-(2-bromophenyl)-4H-1,3,4-oxadiazine-5(6H)-one] | 5.83 |
| O=C1COC(c2ccccc2[N+](=O)[O-])=NN1c1ccccc1 [Example 20, 2-(2-Nitrophenyl)-4-phenyl-4H-1,3,4-oxadiazine-5(6H)-one] | 28.2 |
| COc1ccccc1C1=NN(c2ccccc2F)C(=O)CO1 [Example 26, 2-(2-Methoxyphenyl)-4-(2-fluorophenyl)-4H-1,3,4-oxadiazine-5(6H)-one] | 10.8 |
| O=C1COC(c2cccnc2)=NN1c1ccccc1 [Example 29, 2-(3-Pyridyl)-4-phenyl-4H-1,3,4-oxadiazine-5(6H)-one hydrochloride] | 43.5 |
| O=C1COC(c2ccccc2)=NN1c1ccccc1Br [Example 30, 2-Phenyl-4-(2-bromophenyl)-4H-1,3,4-oxadiazine-5(6H)-one] | 1.73 |
| O=C1COC(Cc2ccccc2)=NN1c1ccccc1 [Example 32, 2-Benzyl-4-phenyl-4H-1,3,4-oxadiazine-5(6H)-one] | 36.6 |
| O=C1COC(c2ccccc2)=NN1c1ccccc1[N+](=O)[O-] [Example 37, 2-Phenyl-4-(2-nitrophenyl)-4H-1,3,4-oxadiazine-5(6H)-one] | 3.94 |
| O=C1COC(c2ccccc2)=NN1c1ccccc1CO [Example 41, 2-Phenyl-4-(2-hydroxymethylphenyl)-4H-1,3,4-oxadiazine-5(6H)-one] | 53.3 |
| N#Cc1cccc(N2N=C(c3ccccc3)OCC2=O)c1 [Example 46, 2-Phenyl-4-(3-cyanophenyl)-4H-1,3,4-oxadiazine-5(6H)-one] | 13.1 |
| O=C1COC(c2ccccc2O)=NN1c1ccccc1Br [Example 48, 2-(2-hydroxyphenyl)-4-(2-bromophenyl)-4H-1,3,4-oxadiazine-5(6H)-one] | 1.29 |
| O=C1COC(c2ccccc2O)=NN1c1ccccc1 [Example 49, 2-(2-Hydroxyphenyl)-4-phenyl-4H-1,3,4-oxadiazine-5(6H)-one] | 2.7 |
| O=C1COC(c2ccccc2)=NN1c1ccccc1O [Example 50, 2-Phenyl-4-(2-hydroxyphenyl)-4H-1,3,4-oxadiazine-5(6H)-one] | 27.9 |
| O=C1COC(c2ccccc2O)=NN1c1ccc(F)cc1 [Example 52, 2-(2-Hydroxyphenyl)-4-(4-fluorophenyl)-4H-1,3,4-oxadiazine-5(6H)-one] | 1.52 |
| O=C1COC(c2ccccc2O)=NN1c1ccc(F)cc1F [Example 53, 2-(2-Hydroxyphenyl)-4-(2,4-difluorophenyl)-4H-1,3,4-oxadiazine-5(6H)-one] | 1.92 |
| O=C1COC(c2ccccc2OCc2ccncc2)=NN1c1ccccc1 [Example 55, 2-[2-(4-Pyridyl)methoxyphenyl]-4-phenyl-4H-1,3,4-oxadiazine-5(6H)-one] | 10.5 |
| O=C1COC(c2ccccc2OCCN2CCOCC2)=NN1c1ccccc1 [Example 56, 2-{2-[2-(4-Morpholinyl)ethoxy]phenyl}-4-phenyl-4H-1,3,4-oxadiazine-5(6H)-one hydrochloride] | 17.6 |
| O=C1COC(c2ccccc2OCc2cccnc2)=NN1c1ccccc1 [Example 58, 2-[2-(3-Pyridyl)methoxyphenyl]-4-phenyl-4H-1,3,4-oxadiazine-5(6H)-one hydrochloride] | 14.3 |

Continued, values first:

| IC50 [µM] | Compound |
| --- | --- |
| 33.2 | Cn1cccc1C1=NN(c2ccccc2)C(=O)CO1 [Example 3, 2-(1-Methyl-2-pyrolyl)-4-phenyl-4H-1,3,4-oxadiazine-5(6H)-one] |
| 48 | O=C1COC(c2ccc[nH]2)=NN1c1ccccc1 [Example 6, 2-(2-Pyrrolyl)-4-phenyl-4H-1,3,4-oxadiazine-5(6H)-one] |
| 21.1 | Cc1cccc(C2=NN(c3ccccc3)C(=O)CO2)n1 [Example 8, 2-(6-Methyl-2-pyridyl)-4-phenyl-4H-1,3,4-oxadiazine-5(6H)-one hydrochloride] |
| 44.2 | O=C1COC(c2ccccn2)=NN1c1ccc(F)cc1F [Example 10, 2-(2-Pyridyl)-4-(2,4-difluorophenyl)-4H-1,3,4-oxadiazine-5(6H)-one hydrochloride] |
| 69 | O=C1COC(c2ccccn2)=NN1C1CCCCC1 [Example 11, 2-(2-Pyridyl)-4-cyclohexyl-4H-1,3,4-oxadiazine-5(6H)-one hydrochloride] |
| 42.8 | O=C1COC(c2ccnc(Cl)c2)=NN1c1ccccc1 [Example 12, 2-(2-Chloro-4-pyridyl)-4-phenyl-4H-1,3,4-oxadiazine-5(6H)-one hydrochloride] |
| 67.3 | O=C1COC(C2CCCCC2)=NN1c1ccccc1 [Example 22, 2-Cyclohexyl-4-phenyl-4H-1,3,4-oxadiazine-5(6H)-one] |
| 33.1 | O=C1COC(c2ccccc2)=NN1C1CCCCC1 [Example 27, 2-Phenyl-4-cyclohexyl-4H-1,3,4-oxadiazine-5(6H)-one] |
| 25.2 | COc1ccccc1C1=NN(C2CCCCC2)C(=O)CO1 [Example 28, 2-(2-Methoxyphenyl)-4-cyclohexyl-4H-1,3,4-oxadiazine-5(6H)-one] |
| 8.3 | O=C1COC(c2cccs2)=NN1c1ccccc1 [Example 31, 2-(2-Thienyl)-4-phenyl-4H-1,3,4-oxadiazine-5(6H)-one] |
| 4.28 | O=C1COC(c2ccccn2)=NN1c1ccccc1Br [Example 33, 2-(2-Pyridyl)-4-(2-bromophenyl)-4H-1,3,4-oxadiazine-5(6H)-one] |
| 9.21 | O=C1COC(c2ccccn2)=NN1c1ccccc1F [Example 34, 2-(2-Pyridyl)-4-(2-fluorophenyl)-4H-1,3,4-oxadiazine-5(6H)-one] |
| 42.7 | COc1ccccc1N1N=C(c2ccccn2)OCC1=O [Example 35, 2-(2-Pyridyl)-4-(2-methoxyphenyl)-4H-1,3,4-oxadiazine-5(6H)-one] |
| 51.4 | O=C1COC(c2ccccc2)=NN1c1cccnc1 [Example 39, 2-Phenyl-4-(3-pyridyl)-4H-1,3,4-oxadiazine-5(6H)-one hydrochloride] |
| 34.8 | N#Cc1cccnc1N1N=C(c2ccccc2)OCC1=O [Example 40, 2-Phenyl-4-(3-cyano-2-pyridyl)-4H-1,3,4-oxadiazine-5(6H)-one hydrochloride] |
| 3.13 | N#Cc1ncccc1N1N=C(c2ccccc2)OCC1=O [Example 42, 2-Phenyl-4-(2-cyano-3-pyridyl)-4H-1,3,4-oxadiazine-5(6H)-one hydrochloride] |
| 25.3 | O=C1COC(c2ccccc2)=NN1c1cccs1 [Example 43, 2-Phenyl-4-(2-thienyl)-4H-1,3,4-oxadiazine-5(6H)-one] |
| 22.7 | O=C1COC(c2ccccc2)=NN1c1ccsc1 [Example 44, 2-Phenyl-4-(3-thienyl)-4H-1,3,4-oxadiazine-5(6H)-one] |
| 1.06 | O=C1COC(c2ccccc2O)=NN1c1ccccc1F [Example 51, 2-(2-Hydroxyphenyl)-4-(2-fluorophenyl)-4H-1,3,4-oxadiazine-5(6H)-one] |

Reference: patent publication US6825192B1, “Heterodiazinone derivatives” (Eisai Co., Ltd., priority 1999, dated 2004)
